# Reference: a melting point compilation (Tetko et al.; mined from patent text by program, amines drawn as free bases though some values may be those of a salt)
row,Structure (SMILES),melting point
1,OC(c1ccc2c(c1)CCCN2)(C(F)(F)F)C(F)(F)F,115 to 116 °C
2,CCOC(=O)c1c(Cl)c2cccnc2n(C)c1=O,132 to 135 °C
3,CCCc1nn(-c2ccc(C(F)(F)F)cn2)cc1CCCCOc1cc(CCC(=O)O)n(-c2ccccc2)n1,123 to 124 °C
4,CNC(=O)c1cnn(-c2ccccc2)c1Br,157 to 159 °C
5,Clc1cc(Cl)c2nc(SCc3ccccc3)nn2c1,115 to 116 °C
6,CC(Cc1ccc(OC(C)C)cc1)NCC(O)c1cccc(Cl)c1 (configuration not stated),58 to 61 °C
7,CCCc1ccc(N2CCC(O)CC2)nn1,138 to 140 °C
8,O=[N+]([O-])c1ccc2c(c1)CNCCS2,104 to 105 °C
9,O=C1c2nccnc2C(Cl)N1c1ccc2ccc(Cl)nc2n1 (configuration not stated),264 °C
10,COC(=O)c1ccc2c(c1)SCCC2O (configuration not stated),79 to 81 °C
11,Cc1cc(O)c(S(=O)CCC(C)C)c(=O)o1 (configuration not stated),80 to 81 °C
12,CC[C@@]12C[C@H](N)[C@](O)(c3ccccc3)C[C@H]1CCc1cc(O)ccc12,209 to 210 °C
13,O=C1NCC(CN2CCN(c3cccc(C(F)(F)F)c3)CC2)O1 (configuration not stated),122 to 124 °C
14,CC[C@H](C)[C@@H](CO)NC(=O)[C@H](Cc1c[nH]cn1)NC(=O)[C@H](Cc1cccc2ccccc12)NC(=O)OCc1ccccc1,197 to 199 °C
15,COCC(C)Oc1cc(Oc2ccc(S(C)(=O)=O)nc2)cc2cc(C3=NCC(CC(N)=O)S3)[nH]c12 (configuration not stated),131 to 132 °C
16,Cc1ccc2c(c1)cc(C(=O)O)n2CC(=O)OC(C)(C)C,174 to 176 °C
17,O=C(Nc1c(C(O)(C(F)(F)F)C(F)(F)F)ccc2ccccc12)c1cccc(C(F)(F)F)c1,187 to 188 °C
18,CN(C1=NC(=O)CS1)c1ccc(C(O)(C(F)(F)F)C(F)(F)F)cc1,240 to 242 °C
19,Cc1ccc(-n2nc(C(=O)CCCO)cc2-c2ccc(S(C)(=O)=O)cc2)cc1,159 to 161 °C
20,CC(C)c1ccccc1-c1nc(-c2ccccc2)n[nH]1,165 to 167 °C
21,CCc1ccc(C(Cl)=NOS(C)(=O)=O)cc1,50 to 52 °C
22,COc1cccc(C23CCCC=C2C(=O)N(CCc2ccccc2)C(=O)C3)c1 (configuration not stated),134 to 135 °C
23,Cc1cc(-c2ncc(OC3SCC(O)C(O)C3O)cc2F)ccn1 (configuration not stated),143 °C
24,FC(F)(F)C1(C(F)(F)F)c2ccccc2Oc2ccccc21,74 to 75 °C
25,COC(=O)Nc1nc(-c2ccccc2)c(-c2nc3ccccc3c(=O)n2-c2cccc(C)c2)s1,268 to 269 °C
26,CCn1nc(Cl)c(CS(=O)(=O)C2=NOC(C)(C)C2)c1Cl,105 to 107 °C

row,Structure (SMILES),melting point
1,NC(CO)c1ccc(OC(F)F)cc1 (configuration not stated),54 to 57 °C
2,COc1ccc(S(=O)(=O)n2ccc3cccc(-c4ccc(C#N)cc4)c32)cc1,164 to 166 °C
3,CCN(CC)C(=O)N(C)C(=O)Nc1ccccc1,88 to 89.5 °C
4,OCCNc1ncc(CN2CCN(c3ccccc3)CC2)c2nc(-c3ccco3)nn12,169 °C
5,O=c1cc(N2CCOc3ccccc32)oc2c1ccc1ccccc12,78 to 79 °C
6,CCCCNC(C)=C1C(=O)OC(=O)C(C(C)=O)=C1O,112 to 114 °C
7,O=Cc1ccc(C=CC(=O)N2CCc3c([nH]c4ccccc34)C2c2ccc3c(c2)CCO3)cc1 (configuration not stated),175 °C
8,Cn1c(CCNS(C)(=O)=O)nnc1NCCCOc1cccc(CN2CCCCC2)c1,105 to 106 °C
9,CC(C)N(Cc1cccs1)S(=O)(=O)N[C@@H](Cc1ccc(NC(=O)c2cc(Cl)cc(Cl)c2)cc1)C(=O)O,122 °C
10,"CCCCCCCCCCCCCCC1C(=O)OC2OC3(C)CCC4C(C)CCC1C24OO3 (single isomer, unassigned; (+))",65 to 66 °C
11,CCOC(=O)c1c(-c2ccc(C)cc2)nc2ccccn12,88 °C
12,O=C(O)CCCC#CCc1c(-c2ccccc2)nc(-c2ccccc2)n1-c1ccccc1,144 to 145 °C
13,COc1cc(C(C)=O)ccc1OCCCN1CCC(C(O)(c2ccccc2)c2ccc(F)cc2)CC1 (configuration not stated),147 to 148 °C
14,C=CCOc1nc(SC)nc(NC(C)C)c1[N+](=O)[O-],51 to 54 °C
15,N#CC(C=O)=C(c1ccc(F)cc1)c1ccc(F)cc1,167 to 169 °C
16,COCCOCOc1c(C(C)(C)C)nc(C=NO)nc1C(C)(C)C,90 to 97 °C
17,Nc1nc2ccccc2c2c1ncn2CCCCNC(=O)c1ccccc1,210 to 212 °C
18,COCc1nc2c(N)nc3cc(CCS(C)(=O)=O)ccc3c2n1CC(C)(C)O,210 to 212 °C
19,CC(=Cc1cccc2ccccc12)[N+](=O)[O-],64 to 67 °C
20,COC(=O)[C@H](c1ccccc1Cl)N1CCc2sc(OC(C)=O)cc2C1,73 to 75 °C
21,C=CCC(CO)C(O)c1ccccc1 (configuration not stated),41 to 43 °C
22,CCCCN(C)C(=O)c1ccc(S(=O)(=O)CCCn2c(CCC)nc3c(N)nc(C)c(C)c32)cc1,127 to 129 °C
23,CCn1c(=O)c2c(nc(/C=C/c3ccccc3OC)n2C)n(CC)c1=O,190 °C
24,COc1ccc(CC(NC(C)=O)C(=O)O)cc1 (racemic),144 to 146 °C
25,O=C(c1cc(-c2ccccc2)c(=O)n2c1-c1sccc1C2)N1CCOCC1,225 to 227 °C
26,NC(=O)C1CCc2ccc([N+](=O)[O-])cc21 (configuration not stated),144 to 145 °C

row,Structure (SMILES),melting point
1,CC(=O)NC[C@@H]1CCCc2cc(S(=O)(=O)c3ccccc3)cc(F)c21,152 to 154 °C
2,CC(=O)N1CCc2c(sc(C)c2CCBr)C1,93 to 95 °C
3,CCOc1ccc(NC(=O)c2cn(CC)c3c2C(=O)CCC3)cc1,209 to 210 °C
4,NC1=NCC(COc2cccc(C(F)(F)F)c2)O1 (configuration not stated),10 °C
5,O=C(O)[C@@H]1CN(C(=O)N(c2ccccc2)c2cccc(Cl)c2)CCN1C(=O)N(c1ccccc1)c1cccc(Cl)c1,200 to 203 °C
6,CCc1c(OCc2ccccc2)nc(OCc2ccccc2)nc1C(=O)c1cc(C)cc(C#N)c1,123 to 124 °C
7,CN1CC2(OCCO2)c2ccc3ccccc3c2S1(=O)=O,169 to 171 °C
8,COc1cc(CSc2ccc(O)cc2)cc(OC)c1OC,139 to 140 °C
9,COC(=O)C1Oc2ccc(C3CCCCC3)cc2C(C)(c2ccccc2)O1 (configuration not stated),107 °C
10,CC(=O)c1ccc(C=CC(=O)N2CCc3c([nH]c4ccccc34)C2c2ccc3c(c2)OCO3)cc1O (configuration not stated),217 to 218 °C
11,CCOC(=O)COc1cccc(N)c1,162 to 164 °C
12,OC1OC2CC3CC(C2)OC1O3 (configuration not stated),185 to 194 °C
13,CCOC(=NC(=O)c1ccc(F)cc1)N1Cc2ccccc2-c2ccccc2C1,109 to 110 °C
14,O=C(CCCN1CCC(=C(c2ccccc2)c2ccccc2)CC1)c1ccc(F)cc1,111 to 114 °C
15,C[C@@H](c1ccc(-c2ccc(C#N)cn2)cc1)N1CC[C@](CC(C)(C)O)(c2ccc(F)cc2)OC1=O,155 to 157 °C
16,COc1ccc(-n2nnnc2C)cc1C=O,132 to 134 °C
17,CC1(C)C(=O)N(c2ccc(C#N)c(C(F)(F)F)c2)C(=O)N1CCCO,131 to 132 °C
18,CC(C)(C)c1ccc2c(c1)[C@H]1Cc3ccccc3[C@@]1(C)N2 (relative stereo),82 to 84 °C
19,OCC(O)(c1ccccc1)C(Cl)c1ccccc1 (configuration not stated),108 to 109 °C
20,COc1nc2cc(Cl)cc(CCCO)c2nc1OC,104 to 105 °C
21,O=C(N[C@H]1CN(C(=O)N2CCC[C@H]2C(=O)O)C1=O)c1ccccc1,148 to 151 °C
22,CS(=O)(=O)c1ccc(OCCO)cc1,89 to 90 °C
23,CN(C)CCN1C(=O)c2ccc3[nH]c4ccc(O)cc4c3c2C1=O,> 260 °C
24,N#Cc1ccc(SCc2ccccc2)cc1,85 °C
25,CCOC(=O)c1ccc(-c2ccc(C#N)cc2)s1,133 to 134 °C
26,COc1c(CN(C)C)c2c(c3c1OC(C)(C)C3)C(c1ccccc1)=NC(C)(C)C2,124 to 125 °C

row,Structure (SMILES),melting point
1,CC1=CSC(n2ccc(OCc3ccc(C(F)(F)F)o3)cc2=O)N1C(=O)O (configuration not stated),261 to 263 °C
2,COC(=O)CN(CCNC(=O)OC(C)(C)C)C(=O)Cc1cc2c(C)ccnc2[nH]c1=O,175 to 177 °C
3,FC1(F)Oc2cccc(-c3n[nH]cc3I)c2O1,142 °C
4,O=C(O)CC(c1ccc(OCc2ccc3ccccc3n2)cc1)c1ccc(OCc2ccc3ccccc3n2)cc1,94 to 111 °C
5,Nc1nccc(-c2cn(-c3ccccc3)nc2-c2ccc(F)cc2)n1,170 to 171 °C
6,Fc1cc2[nH]c(S)nc2cc1N1CCCC1,170 to 171 °C
7,O=C(O)COc1ccc(SCc2cc(-c3ccc(Cl)cc3)no2)c2c1CCC2,92 to 94 °C
8,O=C(O)c1cn(C2CC2)c2cc(N3CCC(c4ccccn4)C3)c(F)cc2c1=O (configuration not stated),216 to 219 °C
9,c1cn(-c2ccnc(-n3ccnc3)n2)cn1,131 to 132 °C
10,Cc1ccc(N2C(=O)C(O)=C(C(=O)c3ccc(-c4ccccn4)cc3)C2c2ccc(OC(F)(F)F)cc2)nn1 (configuration not stated),247 to 249 °C
11,CC(=NNc1ccc(C2=NNC(=O)CC2)cc1)c1ccc(C#N)cc1,288 to 290 °C
12,Cn1ncc2c1-c1c(Sc3ccccn3)sc(C(N)=O)c1CC2,234 to 236 °C
13,CCc1nn(CCO)c(CC)c1Oc1cc(F)cc(-n2cccn2)c1,120 to 122 °C
14,C=Cc1cc(CNC(=O)C(F)=Cc2ccc(C(C)(C)C)cc2)cc(F)c1NS(C)(=O)=O,165 to 167 °C
15,O=C(NCCCCOc1ccc(-n2ccnc2)cc1)c1ccc(F)cc1,122 to 123 °C
16,N#Cc1ccc(Oc2c(Cl)cc(Cl)cc2Cl)cc1Cl,108 to 116 °C
17,CCOC(=O)Cc1ccc(-c2nc(COc3ccc(COc4nn(-c5ccccc5)cc4/C=C\c4csc(C(C)C)n4)cc3OC)c(C)o2)cc1,89 to 90 °C
18,CCCC(C)C(=O)Oc1c(I)cc(I)cc1I (configuration not stated),66 to 68 °C
19,NS(=O)(=O)c1ccc(CCC(=O)O)cc1,97 to 99 °C
20,COc1cc(-c2cc(C)no2)cc2oc(=O)c(C)c(C)c12,148 to 150 °C
21,O=c1ccc2ccc(Br)cc2[nH]1,295 °C
22,C#Cc1ncn2c(C(F)F)cc(-c3ccc(C(F)(F)F)cc3)nc12,135 °C
23,Cc1cc2cc(Nc3ccnc4cc(-c5ccc(CNCCCN(C)C)cc5)sc34)ccc2[nH]1,167 °C
24,COc1cc(S(C)=O)ccc1-c1nc2ncc(O)cc2[nH]1 (configuration not stated),220 to 223 °C
